Results: US5521170A, “Benzamide derivatives and pharmaceutical composition comprising the same” (Fujisawa Pharmaceutical Co., Ltd., priority 1993, dated 1996)
pIC50: −log10 of the molar value.

These molecules were tested against T1, Vasopressin 1 (Vl) receptor (Rattus norvegicus, UniProt P30560) (assay: Vasopressin 1 (Vl) receptor binding). Details: rat liver membrane; 0.5 nM ^3H-vasopressin; 60 minutes at 25° C.; pH 7.4.
T1 construct: The rat liver was dissected and homogenized; from tissue; host or cells: rat liver membranes
Method: Vasopressin 1 (Vl) receptor binding
The rat liver was dissected and homogenized in 10 volume of ice cold 250 mM sucrose buffer containing 25 mM Tris-HCl (pH 7.4), 5 mM MgCl2 and 0.1 mM phenylmethylsulfonyl fluoride (PMSF). The homogenate was centrifuged at 1000 xg for 10 minutes. The supernatant fraction was separated and centrifuged at 45,000 xg for 30 minutes. The remaining pellet was resuspended in 10 volume of ice cold 100 mM Tris-HCl (pH 7.4) buffer (containing 5 mM MgCl2, 0.1% bovine serum albumin and 0.1 mM PMSF), and centrifuged at 45,000 xg for 30 minutes again. The final pellet was resuspended in 100 mM Tris-HCl buffer. The resulting membrane preparation was used immediately for the binding assay.
Competition assays were conducted at equilibrium (60 minutes at 25° C.) by using 0.5 nM ^3 H-vasopressin ([phenylalanyl-3,4,5-^3 H]-vasopression; 40-87 Ci/mmol; New England Nuclear) in 100 mM Tris-HCl (pH 7.4) buffer. Nonspecific binding was determined by using 1 μM [d(CH2)5, Tyr^2 (Me), Arg^8 ]-vasopressin (Peptide institute, Japan). After incubation, reaction was terminated by adding 5 ml of ice-cold 100 mM Tris-HCl (pH 7.4) buffer, and then filtered rapidly through Whatman glass filter (GF/C). […] The glass filter was mixed with liquid scintilation cocktail, and radioactivity was counted in a liquid scintilation counter (TRI-CARB 4530, Packard). […]

T1 sequence (P30560 whole entry): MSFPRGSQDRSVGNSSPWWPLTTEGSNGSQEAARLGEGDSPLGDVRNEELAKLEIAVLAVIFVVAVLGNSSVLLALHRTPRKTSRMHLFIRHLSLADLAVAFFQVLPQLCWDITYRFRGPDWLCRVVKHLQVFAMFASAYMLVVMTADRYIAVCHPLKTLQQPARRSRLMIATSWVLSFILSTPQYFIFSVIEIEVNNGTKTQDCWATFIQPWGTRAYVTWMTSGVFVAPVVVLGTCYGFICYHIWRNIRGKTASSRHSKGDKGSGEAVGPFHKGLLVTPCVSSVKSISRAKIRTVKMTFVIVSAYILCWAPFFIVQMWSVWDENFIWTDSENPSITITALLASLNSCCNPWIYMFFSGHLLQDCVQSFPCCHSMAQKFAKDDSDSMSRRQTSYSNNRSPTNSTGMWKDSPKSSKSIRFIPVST

pIC50	SMILES
8.41	Cc1ccc(-c2ccccc2C(=O)Nc2ccc(C(=O)N3CCCCc4ccccc43)cc2)cc1 [2-2), 1-{4-[2-(4-Methylphenyl)benzoylamino]benzoyl}-2,3,4,5-tetrahydro-1H-benzazepine]
8.36	Cc1ccccc1-c1ccccc1C(=O)Nc1ccc(C(=O)N2CCCC(N(C)C)c3ccccc32)cc1 (centres unmarked) [2-21), 5-Dimethylamino-1-{4-[2-(2-methylphenyl)benzoylamino]benzoyl}-2,3,4,5-tetrahydro-1H-benzazepine]

These molecules were tested against T2, Vasopressin 2 (V2) receptor (Rattus norvegicus, UniProt Q00788) (assay: Vasopressin 2 (V2) receptor binding). Details: male rat kidney medullopapillary membrane; 0.5 nM ^3H-vasopressin; 2 hours at 25° C.; pH 7.4.
T2 construct: The medullopapillary region of male rat kidey was dissected; from tissue; host or cells: male rat kidney medullopapillary membranes
Method: Vasopressin 2 (V2) receptor binding
The medullopapillary region of male rat kidey was dissected and homogenized in 10 volume of ice cold 250 mM sucrose buffer containing 25 mM Tris-HCl (pH 7.4), 5 mM MgCl2 and 0.1 mM phenylmethylsulfonyl fluoride (PMSF). The homogenate was centrifuged at 500 xg for 5 minutes. The supernatant fraction was separated and centrifuged at 45,000 xg for 30 minutes. The remaining pellet was resuspended in 10 volume of ice cold 100 mM Tris-HCl (pH 7.4) buffer (containing 5 mM MgCl2, 0.1% bovine serum albumin and 0.1 mM PMSF), and centrifuged at 45,000 xg for 30 minutes again. The final pellet was resuspended in 100 mM Tris-HCl buffer. The resulting membrane preparation was used immediately for the binding assay.
Competition assays were conducted at equilibrium (2 hours at. 25° C.) by using 0.5 nM ^3 H-vasopression ([phenylalanyl-3,4,5-3H]-vasopression; 40-87 Ci/mmol; New England Nuclear) in 100 mM Tris-HCl (pH 7.4) buffer. Nonspecific binding was determined by using 1 μM [d(CH2)5, D-Ile^2 Ile^4 Arg8]-vasopressin (Peninsula Laboratories USA). After incubation, reaction was terminated by adding 5 ml of ice-cold 100 mM Tris-HCl (pH 7.4) buffer, and then filtered rapidly through Whatman glass filter (GF/C). The filter was washed 2 times with the same buffer (5 ml). The glass filter was mixed with liquid scintilation cocktail, and radioactivity was counted in a liquid scintilation counter (TRI-CARB 4530, Packard). Competition activity of the test compound was represented by IC50 values.

T2 sequence (Q00788 whole entry): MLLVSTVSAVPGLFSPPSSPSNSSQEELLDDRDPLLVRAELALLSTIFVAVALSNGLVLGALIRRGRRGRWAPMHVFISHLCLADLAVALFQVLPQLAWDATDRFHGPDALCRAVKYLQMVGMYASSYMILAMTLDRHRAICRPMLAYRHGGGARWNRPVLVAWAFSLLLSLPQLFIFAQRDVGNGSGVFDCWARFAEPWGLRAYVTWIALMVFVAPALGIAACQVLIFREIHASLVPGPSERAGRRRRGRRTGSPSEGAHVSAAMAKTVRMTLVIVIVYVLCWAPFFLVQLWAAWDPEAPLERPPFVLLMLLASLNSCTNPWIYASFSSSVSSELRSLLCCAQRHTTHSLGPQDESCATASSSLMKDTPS

SMILES	pIC50
Cc1ccc(-c2ccccc2C(=O)Nc2ccc(C(=O)N3CCC(=O)N(CC(=O)N4CCN(C)CC4)c4cc(Cl)ccc43)cc2)cc1 [16-9), 8-Chloro-5-{4-[2-(4-methylphenyl)benzoylamino]benzoyl}-1-[(4-methyl-1-piperazinyl)carbonylmethyl]-1,3,4,5-tetrahydro-1,5-benzodiazepin-2(2H)-one]	8.48
Cc1ccc(-c2ccccc2C(=O)Nc2ccc(C(=O)N3CCC(=O)N(CC(=O)N4CCN(C)CC4)c4cc(C)ccc43)cc2)cc1 [16-14), 8-Methyl-5-{4-[2-(4-methylphenyl)benzoylamino]benzoyl}-1-[(4-methyl-1-piperazinyl)carbonylmethyl]1,3,4,5-tetrahydro-1,5-benzodiazepin-2(2H)-one]	8.57
Cc1ccc(-c2ccccc2C(=O)Nc2ccc(C(=O)N3CCCC(CC(=O)N4CCN(C)CC4)c4ccccc43)cc2)cc1 (centres unmarked) [16-69), 1-{4-[2-(4-Methylphenyl)benzoylamino]benzoyl}-5-(4-methyl-1-piperazinylcarbonyl)methyl-2,3,4,5-tetrahydro-1H-1-benzazepine]	8.29
Cc1ccc(-c2ccccc2C(=O)Nc2ccc(C(=O)N3CCC(=O)N(CC(=O)N4CCN(C)CC4)c4ccccc43)cc2)cc1 [Example 15, 5-{4-[2-(4-methylphenyl)benzoylamino]benzoyl}-1-[(4-methyl-1-piperazinyl)carbonylmethyl]-1,3,4,5-tetrahydro-1,5-benzodiazepin-2(2H)-one]	8.74

Continued, values first:

pIC50	SMILES
8.52	Cc1ccc(-c2ccccc2C(=O)Nc2ccc(C(=O)N3CC(=O)Nc4ccccc43)cc2)cc1 [2-4), 1-{4-[2-(4-Methylphenyl)benzoylamino]benzoyl}-1,2,3,4-tetrahydroquinoxalin-3-one]
8.64	Cc1ccc(-c2ccccc2C(=O)Nc2ccc(C(=O)N3CCC(=O)N(CC(=O)N4CCN(C)CC4)c4ccccc43)cc2)c(C)c1 [16-3), 5-{4-[2-(2,4-Dimethylphenyl)benzoylamino]benzoyl}-1-[(4-methyl-1-piperazinyl)carbonylmethyl]-1,3,4,5-tetrahydro-1,5-benzodiazepin-2 (2H)-one]
